How the values were obtained:
[1] = molecular target: T1, Discoidin domain-containing receptor 2 (Homo sapiens, UniProt Q16832); assay: LanthaScreen Eu Kinase Activity Assay; conditions: pH 7.5; 25 °C
T1 sequence (Q16832 whole entry): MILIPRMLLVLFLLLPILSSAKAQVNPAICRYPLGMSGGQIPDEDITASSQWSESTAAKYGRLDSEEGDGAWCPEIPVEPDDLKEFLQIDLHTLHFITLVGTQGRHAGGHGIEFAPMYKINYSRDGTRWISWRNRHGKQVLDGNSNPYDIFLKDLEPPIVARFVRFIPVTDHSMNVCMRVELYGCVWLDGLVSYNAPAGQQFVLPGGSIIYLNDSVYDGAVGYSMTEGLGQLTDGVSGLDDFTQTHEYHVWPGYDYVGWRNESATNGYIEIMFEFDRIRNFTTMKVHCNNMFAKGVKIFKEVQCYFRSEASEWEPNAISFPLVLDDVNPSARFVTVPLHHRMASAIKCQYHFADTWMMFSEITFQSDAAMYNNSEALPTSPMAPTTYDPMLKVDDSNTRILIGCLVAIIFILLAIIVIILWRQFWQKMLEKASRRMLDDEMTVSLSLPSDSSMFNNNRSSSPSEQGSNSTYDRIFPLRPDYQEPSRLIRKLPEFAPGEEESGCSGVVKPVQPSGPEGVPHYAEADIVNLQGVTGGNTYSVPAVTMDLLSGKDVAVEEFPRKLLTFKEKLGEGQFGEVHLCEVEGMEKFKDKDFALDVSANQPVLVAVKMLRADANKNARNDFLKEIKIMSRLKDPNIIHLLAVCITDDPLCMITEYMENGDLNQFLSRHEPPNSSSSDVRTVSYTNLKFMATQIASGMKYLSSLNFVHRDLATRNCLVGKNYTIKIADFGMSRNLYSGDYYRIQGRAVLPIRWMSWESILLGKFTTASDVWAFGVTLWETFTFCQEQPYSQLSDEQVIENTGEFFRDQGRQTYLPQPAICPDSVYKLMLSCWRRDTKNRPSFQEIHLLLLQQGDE
Description: (§1) The effects of compounds on the kinases DDR1 and DDR2 were assessed by using a LanthaScreen Eu kinase activity assay technology (Invitrogen, Carlsbad, CA, USA). […] Reaction buffer for the kinase reaction consists of 50 mm HEPES pH 7.5, 0.01% BRIJ-35, 10 mm MgCl2, and 1 mm EGTA. The concentration of fluorescein-polyGAT substrate (Invitrogen) in the assay was […] reactions were initiated with the addition of […] in the presence of serial dilutions of compounds. The reactions were allowed to proceed for 1 hour at room temperature before a 10 μL preparation of EDTA (20 mm) and Eu-labeled antibody (4 nm) in TR-FRET dilution buffer was added. The final concentration of antibody in the assay well was 2 nm, and the final concentration of EDTA was 10 mm.

[2] = molecular target: Epithelial discoidin domain-containing receptor 1 (Homo sapiens, UniProt Q08345); assay: LanthaScreen Eu Kinase Activity Assay; conditions: pH 7.5; 25 °C
Chain of Epithelial discoidin domain-containing receptor 1 (Q08345 whole entry, the tested form may be a part): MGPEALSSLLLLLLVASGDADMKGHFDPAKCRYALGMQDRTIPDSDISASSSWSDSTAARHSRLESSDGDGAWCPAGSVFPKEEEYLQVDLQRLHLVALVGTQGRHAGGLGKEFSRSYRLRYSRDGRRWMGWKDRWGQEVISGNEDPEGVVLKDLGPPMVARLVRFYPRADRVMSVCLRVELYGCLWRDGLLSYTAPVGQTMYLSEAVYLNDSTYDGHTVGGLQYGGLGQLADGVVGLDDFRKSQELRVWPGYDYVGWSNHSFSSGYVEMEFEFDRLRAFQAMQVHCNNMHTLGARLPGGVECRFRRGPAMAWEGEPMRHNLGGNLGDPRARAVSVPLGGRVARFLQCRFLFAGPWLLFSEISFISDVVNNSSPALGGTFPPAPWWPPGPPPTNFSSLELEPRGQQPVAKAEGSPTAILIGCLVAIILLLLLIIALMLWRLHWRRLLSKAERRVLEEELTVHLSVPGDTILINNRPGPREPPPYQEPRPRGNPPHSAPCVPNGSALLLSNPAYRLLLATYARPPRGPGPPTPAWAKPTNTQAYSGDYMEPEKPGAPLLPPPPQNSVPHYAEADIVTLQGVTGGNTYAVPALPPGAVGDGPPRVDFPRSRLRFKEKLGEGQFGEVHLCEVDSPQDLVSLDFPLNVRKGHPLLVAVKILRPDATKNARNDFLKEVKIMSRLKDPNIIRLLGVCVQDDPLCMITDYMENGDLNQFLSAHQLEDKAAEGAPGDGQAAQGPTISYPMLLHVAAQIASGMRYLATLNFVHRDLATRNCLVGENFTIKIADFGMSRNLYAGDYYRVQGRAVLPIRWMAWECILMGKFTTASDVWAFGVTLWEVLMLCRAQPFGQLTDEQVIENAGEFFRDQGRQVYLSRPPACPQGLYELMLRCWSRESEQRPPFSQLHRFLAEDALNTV
Description: as §1

## C=CCOC(=O)N1CCC(c2cc(Nc3ncc(C(=O)Nc4c(C)cccc4Cl)s3)nc(C)n2)C1 (configuration not stated) [Allyl 3-(6-((5-((2-chloro-6-methylphenyl)carbamoyl)thiazol-2-yl)amino)-2-methylpyrimidin-4-yl)pyrrolidine-1-carboxylate (5d)]
[1]
  IC50: 0.017 µM
[2]
  IC50: 0.0133 µM
